The values below come from ChEMBL document CHEMBL4014340, “Identification of a Potent, Selective, and Efficacious Phosphatidylinositol 3-Kinase δ (PI3Kδ) Inhibitor for the Treatment of Immunological Disorders” (J Med Chem, 2017).

Some results are limits rather than exact numbers.

Data set [1] is described as follows: Metabolic stability in human liver microsomes assessed as parent compound remaining at 0.5 uM preincubated for 6 mins followed by NADPH addition measured after 10 mins by LC-MS/MS analysis. Type of data set: ADME, microsome. The settings on record: read-out: Stability.
A short description of data set [2]: Metabolic stability in mouse liver microsomes assessed as parent compound remaining at 0.5 uM preincubated for 6 mins followed by NADPH addition measured after 10 mins by LC-MS/MS analysis. The data set is classed as ADME, microsome. The settings on record: read-out: Stability.
A short description of data set [3]: Metabolic stability in rat liver microsomes assessed as parent compound remaining at 0.5 uM preincubated for 6 mins followed by NADPH addition measured after 10 mins by LC-MS/MS analysis. The data set is classed as ADME, microsome. The note with it: read-out: Stability.
A short description of data set [4]: AUC (0 to 24 hrs) in Balb/c mouse at 30 mg/kg, po. The data set is classed as ADME, organism-based. Also on record: dose 30 mg/kg, time < 24 hr, route oral. The note with it: in vivo.
A short description of data set [5]: Half life in human liver microsomes aat 0.5 uM preincubated for 6 mins followed by NADPH addition measured after 10 mins by LC-MS/MS analysis. The data set is classed as ADME, microsome.
Data set [6] can be described thus: Half life in mouse liver microsomes aat 0.5 uM preincubated for 6 mins followed by NADPH addition measured after 10 mins by LC-MS/MS analysis. Type of data set: ADME, microsome.
The nature of data set [7]: AUC (0 to 24 hrs) in Balb/c mouse at 100 mg/kg, po. Type of data set: ADME, organism-based. The note with it: in vivo. On the set-up: dose 100 mg/kg, time < 24 hr, route oral.
Data set [8] is described as follows: Half life in rat liver microsomes aat 0.5 uM preincubated for 6 mins followed by NADPH addition measured after 10 mins by LC-MS/MS analysis. The data set is classed as ADME, microsome.
Data set [9] can be described thus: AUC (0 to 24 hrs) in Balb/c mouse at 10 mg/kg, po. Type of data set: ADME, organism-based. Also on record: time < 24 hr, dose 10 mg/kg, route oral. The note with it: in vivo.
Data set [10] is described as follows: Cmax in Balb/c mouse at 10 mg/kg, po. The data set is classed as ADME, organism-based. On the set-up: dose 10 mg/kg, route oral. The note with it: in vivo.

Regarding `CC(=O)N1C[C@@H](C)N(c2cc(-c3cc(C(F)(F)F)c4c(N)ncnn34)ccc2C#N)C(=O)C1(C)C`, the results for the remaining at 10 min, 0.5 µM in data set [1], in data set [2] and in [3] were 90%, 23% and 43%, respectively.
`CC(=O)N1CCN(c2cc(-c3cc(Cl)c4c(N)ncnn34)ccc2S(C)(=O)=O)C(=O)C1(C)C`: the remaining at 10 min, 0.5 µM was 100% in [1], 84% in data set [2] and 100% in data set [3].
Regarding `CC(=O)N1CCN(c2cccc(-c3cc(Cl)c4c(N)ncnn34)c2)C(=O)C1(C)C`, the values for the remaining at 10 min, 0.5 µM in data set [1], in [2] and in data set [3] were 100%, 17% and 57%, respectively. Also, the area under the curve AUC(0-t) at 24 h in data set [4] stood at 2.9 µM·h; in data set [7], 17 µM·h. Moreover, the results for the half-life at 0.5 µM in [5], in data set [6] and in [8] were more than 120 min, 4 min and 16 min, respectively.
Regarding `CC(=O)N1CCN(c2cccc(-c3cc(-c4cnn(C5CC5)c4)c4c(N)ncnn34)c2)C(=O)C1(C)C`, the exposure AUC(0-t) at 24 h in [9] turned out to be 1.1 µM·h. For the same molecule, in data set [10], the highest level (Cmax) was 470 nM.
With `CC(=O)N1CCN(c2cccc(-c3cc(Cl)c4c(N)ncnn34)c2C)C(=O)C1(C)C`, the remaining at 10 min, 0.5 µM stood at 84% in data set [1], 1% in [2] and 19% in data set [3].
As to `CC(=O)N1CCN(c2cc(-c3cc(C(F)(F)F)c4c(N)ncnn34)ccc2C(F)(F)F)C(=O)C1(C)C`, the values for the remaining at 10 min, 0.5 µM in [1], in data set [2] and in data set [3] were 70%, 99% and 77%, respectively.
The corresponding values for `CC(=O)N1C[C@@H](C)N(c2cc(-c3cc(Cl)c4c(N)ncnn34)ccc2C#N)C(=O)C1(C)C` are 82%, 22% and 59%.
For `CC(=O)N1CCN(c2cc(C)cc(-c3cc(Cl)c4c(N)ncnn34)c2)C(=O)C1(C)C`, the values for the remaining at 10 min, 0.5 µM in data set [1], in data set [2] and in data set [3] were 92%, 45% and 100%, respectively.
As for `CC(=O)N1CCN(c2cc(-c3cc(Cl)c4c(N)ncnn34)ccc2Cl)C(=O)C1(C)C`, the results for the remaining at 10 min, 0.5 µM in data set [1], in [2] and in data set [3] were 85%, 67% and 52%, respectively.
Consider `COc1ccc(-c2cc(C(F)(F)F)c3c(N)ncnn23)cc1N1CCN(C(C)=O)C(C)(C)C1=O`, for which the remaining at 10 min, 0.5 µM stood at 95% in [1], 100% in data set [2] and 100% in [3].
Turning to `CC(=O)N1CCN(c2cc(-c3cc(C(F)(F)F)c4c(N)ncnn34)ccc2C(C)O)C(=O)C1(C)C` (racemic), the remaining at 10 min, 0.5 µM in data set [1], in [2] and in [3] was 100% each time.
As to `CC(=O)N1CCN(c2cc(-c3cc(Cl)c4c(N)ncnn34)ccc2C(C)O)C(=O)C1(C)C` (racemic), the remaining at 10 min, 0.5 µM in data set [1], in data set [2] and in data set [3] was 100% throughout.
